Experimental data as given in article PMC3265452 (PLoS Neglected Tropical Diseases, 2012).
Counter-ions that a name gives are not always drawn.

target: AaDOP2 (Aedes aegypti, UniProt H6D5H2); assay: AaDOP2 antagonist screen of the LOPAC1280 library (HEK-CRELuc-Aadop2 cells, luminescence); assay type: cell-based; details: not given
Sequence (H6D5H2 1-476): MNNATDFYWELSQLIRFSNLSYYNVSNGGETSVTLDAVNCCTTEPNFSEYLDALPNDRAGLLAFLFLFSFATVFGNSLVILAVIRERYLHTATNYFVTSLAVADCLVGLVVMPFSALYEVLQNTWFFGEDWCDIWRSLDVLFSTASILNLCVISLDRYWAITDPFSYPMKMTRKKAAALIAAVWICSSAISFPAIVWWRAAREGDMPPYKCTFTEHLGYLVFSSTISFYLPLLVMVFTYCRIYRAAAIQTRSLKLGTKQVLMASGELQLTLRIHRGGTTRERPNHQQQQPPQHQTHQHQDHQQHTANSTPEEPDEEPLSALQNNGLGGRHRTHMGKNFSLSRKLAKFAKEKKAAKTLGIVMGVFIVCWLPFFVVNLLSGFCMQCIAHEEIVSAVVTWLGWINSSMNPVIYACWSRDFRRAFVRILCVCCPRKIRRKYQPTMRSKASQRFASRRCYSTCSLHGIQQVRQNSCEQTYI

SMILES | Compound effect (percent receptor signaling in presence of test compound, relative lux units relative to the SCH23390 control)
CCc1ccccc1OC[C@@H](O)CN[C@H]1CCCc2ccccc21.O=C(O)C(=O)O [Compound 1122, SR 59230A oxalate] | 75
Cl.O=C(Cc1ccc(Cl)c(Cl)c1)N1CCCCC1CN1CCCC1 (stereo not drawn) [Compound 1123, BRL 52537 hydrochloride] | 97
Cc1ccc(O)c(N=Nc2ccccc2)n1 [Compound 1125, SIB 1757] | 46
Cc1cccc(/C=C/c2ccccc2)n1 [Compound 1126, SIB 1893] | 83
Cl.c1ccc2c(N3CCNCC3)cccc2c1 [Compound 1127, 1-(1-Naphthyl)piperazine hydrochloride] | 79
O=C(c1ccc(F)cc1)C1CCN(CCn2c(=O)[nH]c3ccccc3c2=O)CC1 [Compound 1128, Ketanserin tartrate] | 53
COc1ccccc1N1CCNCC1.Cl [Compound 1129, 1-(2-Methoxyphenyl)piperazine hydrochloride] | 64
Nc1ccc(CCN2CCN(c3cccc(C(F)(F)F)c3)CC2)cc1 [Compound 1130, PAPP] | 66
O=C1NCN(c2ccccc2)C12CCN(CC1COc3ccccc3O1)CC2 (stereo not drawn) [Compound 1131, Spiroxatrine] | 90
Br.COc1ccc(-c2ccc(=N)n(CCCC(=O)O)n2)cc1 [Compound 1132, SR-95531] | 101
Cc1ccc(C(=O)Nc2ccc(S(=O)(=O)O)c3cc(S(=O)(=O)O)cc(S(=O)(=O)O)c23)cc1NC(=O)c1cccc(NC(=O)Nc2cccc(C(=O)Nc3cc(C(=O)Nc4ccc(S(=O)(=O)O)c5cc(S(=O)(=O)O)cc(S(=O)(=O)O)c45)ccc3C)c2)c1 [Compound 1135, Suramin hexasodium] | 112
Nc1ncnc2c1ncn2C1CCCO1 (stereo not drawn) [Compound 1136, SQ 22536] | 120
C[C@H](O)C(=O)C1=Nc2c(nc(N)[nH]c2=O)NC1 [Compound 1137, Sepiapterin] | 110
Cl.Cn1ccc2cc3c(cc21)CCN3C(=O)Nc1cccnc1 [Compound 1141, SB 206553 hydrochloride] | 73
N[C@@H](Cc1c[nH]c2ccccc12)C(=O)O [Compound 1143, L-Tryptophan] | 114
COc1ccc(/C=C/C(=O)Nc2ccccc2C(=O)O)cc1OC [Compound 1144, Tranilast] | 73
CCN(CC)CCNC(=O)c1cc(S(C)(=O)=O)ccc1OC [Compound 1145, Tiapride hydrochloride] | 96
NCCS(=O)(=O)O [Compound 1146, Taurine] | 101
CCCCNC(=O)NS(=O)(=O)c1ccc(C)cc1 [Compound 1148, Tolbutamide] | 112
Clc1cnc(Oc2ccc(Oc3ncc(Cl)cc3Cl)cc2)c(Cl)c1 [Compound 1150, TCPOBOP] | 91
CC(C)NP(=O)(NC(C)C)OP(=O)(NC(C)C)NC(C)C [Compound 1151, Tetraisopropyl pyrophosphoramide] | 111

SMILES | Compound effect (percent receptor signaling in presence of test compound, relative lux units relative to the SCH23390 control)
c1ccc(C2CN3CCSC3=N2)cc1 (stereo not drawn) [Compound 1152, Tetramisole hydrochloride] | 118
OC(CCN1CCCCC1)(c1ccccc1)C1CCCCC1 (stereo not drawn) [Compound 1153, Trihexyphenidyl hydrochloride] | 92
Cn1c(=O)c2[nH]cnc2n(C)c1=O [Compound 1154, Theophylline] | 98
NC/C=C/C(=O)O [Compound 1155, (E)-4-amino-2-butenoic acid] | 126
CCCCCCCCCCCCCCSCC(=O)O [Compound 1156, Tetradecylthioacetic acid] | 101
COc1cc2c(cc1OC)-c1c/c(=N\c3c(C)cc(C)cc3C)n(C)c(=O)n1CC2 [Compound 1157, Trequinsin hydrochloride] | 133
CC(C)(C)c1cc(/C=C(\C#N)C(N)=S)cc(C(C)(C)C)c1O [Compound 1158, Tyrphostin AG 879] | 33
CC[N+](CC)(CC)CC [Compound 1159, Tetraethylammonium chloride] | 108
Cc1ccc(S(=O)(=O)NC(=O)NN2CCCCCC2)cc1 [Compound 1160, Tolazamide] | 107
CN(C)CCCN1c2ccccc2Sc2ccc(C(F)(F)F)cc21 [Compound 1163, Triflupromazine hydrochloride] | 12
CC(CN(C)C)CN1c2ccccc2CCc2ccccc21 (stereo not drawn) [Compound 1164, Trimipramine maleate] | 13
N#C/C(=C\c1ccc(O)c(O)c1)C(=O)NCc1ccccc1 [Compound 1165, Tyrphostin AG 490] | 96
COc1cc2nc(N3CCN(C(=O)OCc4ccccc4)[C@H](C(=O)NC(C)(C)C)C3)nc(N)c2cc1OC [Compound 1167, L-765,314] | 112
Nc1nc(N)c2nc(-c3ccccc3)c(N)nc2n1 [Compound 1168, Triamterene] | 115
COc1cc2ncnc(Nc3cccc(Cl)c3)c2cc1OC [Compound 1169, Tyrphostin AG 1478] | 88
c1ccc2c(c1)CCCC2C1=NCCN1 (stereo not drawn) [Compound 1170, Tetrahydrozoline hydrochloride] | 102
N#C/C(=C\c1ccc(O)c(O)c1)C(=O)Nc1ccccc1 [Compound 1171, Tyrphostin AG 494] | 83
C[C@@H](NC(=O)/C(C#N)=C/c1ccc(O)c(O)c1)c1ccccc1 [Compound 1174, Tyrphostin AG 527] | 81
Cn1cnc2c1c(=O)[nH]c(=O)n2C [Compound 1175, Theobromine] | 110
N#C/C(=C\c1ccc(O)c(O)c1)C(=O)N1CCc2ccccc21 [Compound 1177, Tyrphostin AG 528] | 78

same assay, conditions: 10 µM compound, 300 nM dopamine, 2 hr

SMILES | % of the SCH23390 effect (percent inhibition of receptor response relative to the SCH23390 control) [%]
CN1CCN(CC/C=C2/c3ccccc3Sc3ccc(S(=O)(=O)N(C)C)cc32)CC1.Cl [Compound 1147, Thiothixene hydrochloride] | 86

same assay, conditions: 10 µM compound, 300 nM dopamine, 2 hr; hit = compound effect <20

SMILES | Compound effect (percent receptor signaling in presence of test compound, relative lux units relative to the SCH23390 control) [%]
Cl.O=C(O)C1CCCN(CCC=C(c2ccccc2)c2ccccc2)C1 (stereo not drawn) [Compound 1124, SKF 89976A hydrochloride] | 95
CN(C)CCCCSC(=N)N.Cl.Cl [Compound 1134, SKF 91488 dihydrochloride] | 89
COc1cc2c(cc1OC)[C@@H](c1ccccc1)CN(C)CC2.O=C(O)/C=C\C(=O)O [Compound 1138, R(-)-SCH-12679 maleate] | 36
CCN(CC)CCOC(=O)c1cc(Cl)c(N)cc1OC.Cl [Compound 1140, SDZ-205,557 hydrochloride] | 96
CN1CCN(CC/C=C2/c3ccccc3Sc3ccc(S(=O)(=O)N(C)C)cc32)CC1.Cl [Compound 1147, Thiothixene hydrochloride] | 14
CCN(CC)C(=S)SSC(=S)N(CC)CC [Compound 1149, Tetraethylthiuram disulfide] | 89
CC(C)(C)NCC(O)c1cc(O)cc(O)c1.CC(C)(C)NCC(O)c1cc(O)cc(O)c1.O=S(=O)(O)O (stereo not drawn) [Compound 1161, Terbutaline hemisulfate] | 119
C/C(=C\c1ccc(C(=O)O)cc1)c1ccc2c(c1)C(C)(C)CCC2(C)C [Compound 1166, TTNPB] | 98
Cc1ccc(S(=O)(=O)N[C@@H](Cc2ccccc2)C(=O)CCl)cc1 [Compound 1172, N-p-Tosyl-L-phenylalanine chloromethyl ketone] | 83
CC(O)C(O)[C@H]1CNc2nc(N)[nH]c(=O)c2N1.Cl.Cl (stereo partly drawn) [Compound 1173, (6R)-5,6,7,8-Tetrahydro-L-biopterin hydrochloride] | 109

same assay, conditions: read-out: % of the SCH23390 effect (percent inhibition of receptor response relative to the SCH23390 control)

SMILES | inhibition at 10 µM [%]
CN(C)CCCN1c2ccccc2Sc2ccc(C(F)(F)F)cc21 [Compound 1163, Triflupromazine hydrochloride] | 88
CC(CN(C)C)CN1c2ccccc2CCc2ccccc21 (stereo not drawn) [Compound 1164, Trimipramine maleate] | 87
